Molecules are shown by their SMILES. pIC50: −log10 of the molar value. Some results are limits rather than exact numbers.

For one test, the target named is T1, full length AKT E17K (Homo sapiens, UniProt P31749, E17K).
T1 construct: host or cells: HEK-293 (ATCC CRL-1573)
T1 sequence (P31749 whole entry E17K): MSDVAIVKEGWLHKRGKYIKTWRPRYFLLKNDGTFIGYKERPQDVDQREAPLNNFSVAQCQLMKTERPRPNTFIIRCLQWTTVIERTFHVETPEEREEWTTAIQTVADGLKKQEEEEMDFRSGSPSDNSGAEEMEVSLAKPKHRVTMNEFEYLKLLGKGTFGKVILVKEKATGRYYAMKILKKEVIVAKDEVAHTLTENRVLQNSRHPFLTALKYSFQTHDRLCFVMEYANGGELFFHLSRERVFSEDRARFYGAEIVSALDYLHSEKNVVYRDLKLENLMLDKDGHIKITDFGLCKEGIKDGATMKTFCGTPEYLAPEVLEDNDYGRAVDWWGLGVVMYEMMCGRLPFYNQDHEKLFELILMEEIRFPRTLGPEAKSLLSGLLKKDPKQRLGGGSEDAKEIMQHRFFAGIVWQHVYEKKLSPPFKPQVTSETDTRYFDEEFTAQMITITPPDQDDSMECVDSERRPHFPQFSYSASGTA
Kind of test: NanoBRET Target Engagement (TE) Assay. The following applies: competitive displacement of tracer in cells, read-out: AKT1 E17K IC50. The test is classed as cell-based. The essentials: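 Compound and tracer incubated 2 h before luminescence at donor 450 nm and acceptor 600 nm, with extracellular signal inhibited. EC50 by sigmoidal variable-slope regression.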
On the technique in general: BRET reads energy transfer from a luciferase to a nearby fluorophore.
One may read the pIC50 as the negative decadic logarithm of the IC50, by convention in mol/L. On to `COc1ccc(-c2ccc3nc(-c4cccnc4N)n(-c4ccc(CN5CCC(Nc6ccnc(C#N)n6)CC5)cc4)c3n2)nc1` [Example 552, 4-((1-(4-(2-(2-Aminopyridin-3-yl)-5-(5-methoxypyridin-2-yl)-3H-imidazo[4,5-b]pyridin-3-yl)benzyl)piperidin-4-yl)amino)pyrimidine-2-carbonitrile], for which the negative logarithm of the IC50 (pIC50) is over 7.82.
For the molecule `N#Cc1ccc2nc(-c3cccnc3N)n(-c3ccc(CN4CCC(Nc5ccnc(C#N)n5)CC4)cc3)c2c1` [Example 500, 2-(2-Aminopyridin-3-yl)-1-(4-((4-((2-cyanopyrimidin-4-yl)amino)piperidin-1-yl)methyl)phenyl)-1H-benzo[d]imidazole-6-carbonitrile], the negative logarithm of the IC50 (pIC50) was over 7.82.
For the molecule `N#Cc1nccc(N2CC3(CCN(Cc4ccc(-n5c(-c6cccnc6N)nc6ccc(-c7ccc(F)cc7)nc65)cc4)CC3)C2)n1` [Example 490, 4-(7-(4-(2-(2-Aminopyridin-3-yl)-5-(4-fluorophenyl)-3H-imidazo[4,5-b]pyridin-3-yl)benzyl)-2,7-diazaspiro[3.5]nonan-2-yl)pyrimidine-2-carbonitrile], the pIC50 is over 7.82.
On to `CC(C)Oc1ccc2nc(-c3cccnc3N)n(-c3ccc(CN4CCC(Nc5ccnc(C#N)n5)CC4)cc3)c2n1` [Example 425, 4-((1-(4-(2-(2-Aminopyridin-3-yl)-5-isopropoxy-3H-imidazo[4,5-b]pyridin-3-yl)benzyl)piperidin-4-yl)amino)pyrimidine-2-carbonitrile], for which the pIC50 is over 7.82.
For `Cc1cc2nc(-c3cccnc3N)n(-c3ccc(CN4CCC(Nc5ccnc(C#N)n5)CC4)cc3)c2nc1C` [Example 412, 4-((1-(4-(2-(2-Aminopyridin-3-yl)-5,6-dimethyl-3H-imidazo[4,5-b]pyridin-3-yl)benzyl)piperidin-4-yl)amino)pyrimidine-2-carbonitrile], the negative-log IC50 (pIC50) is over 7.82.
With `N#Cc1nccc(NC2CCN(Cc3ccc(-n4c(-c5cccnc5N)nc5ccc(-c6ccc(C(F)F)cn6)nc54)cc3)CC2)n1` [Example 649, 4-((1-(4-(2-(2-Aminopyridin-3-yl)-5-(5-(difluoromethyl)pyridin-2-yl)-3H-imidazo[4,5-b]pyridin-3-yl)benzyl)piperidin-4-yl)amino)pyrimidine-2-carbonitrile], the pIC50 was over 7.82.
Consider `Cn1nncc1-c1ccc2nc(-c3cccnc3N)n(-c3ccc(CN4CCC(Nc5ccnc(C#N)n5)CC4)cc3)c2n1` [Example 564, 4-((1-(4-(2-(2-Aminopyridin-3-yl)-5-(1-methyl-1H-1,2,3-triazol-5-yl)-3H-imidazo[4,5-b]pyridin-3-yl)benzyl)piperidin-4-yl)amino)pyrimidine-2-carbonitrile], for which the pIC50 is 7.22 to 7.82.
On to `N#Cc1cc(N2CCN(Cc3ccc(-n4c(-c5cccnc5N)nc5ccc(-c6cccc(Cl)c6)nc54)cc3)CC2)ncn1` [Example 374, 6-(4-(4-(2-(2-Aminopyridin-3-yl)-5-(3-chlorophenyl)-3H-imidazo[4,5-b]pyridin-3-yl)benzyl)piperazin-1-yl)pyrimidine-4-carbonitrile], for which the pIC50 is 7.22 to 7.82.
Same read-out and setting: under `COc1cccnc1-c1ccc2nc(-c3cccnc3N)n(-c3ccc(CN4CCC(Nc5ccnc(C#N)n5)CC4)cc3)c2n1` [Example 563, 4-((1-(4-(2-(2-Aminopyridin-3-yl)-5-(3-methoxypyridin-2-yl)-3H-imidazo[4,5-b]pyridin-3-yl)benzyl)piperidin-4-yl)amino)pyrimidine-2-carbonitrile] stands over 7.82.
On the same count and under the same terms, the result for `N#Cc1nccc(NC2CCN(Cc3ccc(-n4c(-c5cccnc5N)nc5ccc(N6CCOC6=O)nc54)cc3)CC2)n1` [Example 403, 4-((1-(4-(2-(2-Aminopyridin-3-yl)-5-(2-oxooxazolidin-3-yl)-3H-imidazo[4,5-b]pyridin-3-yl)benzyl)piperidin-4-yl)amino)pyrimidine-2-carbonitrile] reads over 7.82; that for `N#Cc1nccc(NC2CCN(Cc3ccc(-n4c(-c5cccnc5N)nc5ccc(F)nc54)cc3)CC2)n1` [Example 401, 4-((1-(4-(2-(2-Aminopyridin-3-yl)-5-fluoro-3H-imidazo[4,5-b]pyridin-3-yl)benzyl)piperidin-4-yl)amino)pyrimidine-2-carbonitrile], 7.22 to 7.82; that for `N#Cc1nccc(NC2CCN(Cc3ccc(-n4c(-c5cccnc5N)nc5ccc(-c6cnoc6)nc54)cc3)CC2)n1` [Example 461, 4-((1-(4-(2-(2-Aminopyridin-3-yl)-5-(isoxazol-4-yl)-3H-imidazo[4,5-b]pyridin-3-yl)benzyl)piperidin-4-yl)amino)pyrimidine-2-carbonitrile], over 7.82.
Turning to `[2H]C([2H])([2H])n1ncc(-c2ccc3nc(-c4cccnc4N)n(-c4ccc(CN5CCC(Nc6ccnc(C#N)n6)CC5)cc4)c3n2)n1` [Example 608, 4-((1-(4-(2-(2-Aminopyridin-3-yl)-5-(2-(methyl-d3)-2H-1,2,3-triazol-4-yl)-3H-imidazo[4,5-b]pyridin-3-yl)benzyl)piperidin-4-yl)amino)pyrimidine-2-carbonitrile], the negative-log IC50 (pIC50) is over 7.82.
Same read-out and setting: under `Cn1cc(-c2ccc3nc(-c4cccnc4N)n(-c4ccc(CN5CCN(c6ccnc(C#N)n6)CC5)cc4)c3n2)ccc1=O` [Example 348, 4-(4-(4-(2-(2-Aminopyridin-3-yl)-5-(1-methyl-6-oxo-1,6-dihydropyridin-3-yl)-3H-imidazo[4,5-b]pyridin-3-yl)benzyl)piperazin-1-yl)pyrimidine-2-carbonitrile] stands 6.22 to 7.22.

Still in this test, the particulars now being: competitive tracer displacement in living cells, read-out: AKT1 E17K IC50.
With `N#Cc1ccnc(NC2CCN(Cc3ccc(-n4c(-c5cccnc5N)nc5cccnc54)cc3)CC2)c1` [Example 75, 2-((1-(4-(2-(2-Aminopyridin-3-yl)-3H-imidazo[4,5-b]pyridin-3-yl)benzyl)piperidin-4-yl)amino)isonicotinonitrile], the negative logarithm of the IC50 (pIC50) was 5.00 to 6.22.
Turning to `N#Cc1cccc(N2CCN(Cc3ccc(-n4c(-c5cccnc5N)nc5ccc(-c6ccccc6)nc54)cc3)CC2)n1` [Example 83, 6-(4-(4-(2-(2-Aminopyridin-3-yl)-5-phenyl-3H-imidazo[4,5-b]pyridin-3-yl)benzyl)piperazin-1-yl)picolinonitrile], the negative-log IC50 (pIC50) was 6.22 to 7.22.
Still for that read-out and setting: under `N#Cc1cccnc1C(=O)NC1CCN(Cc2ccc(-n3c(-c4cccnc4N)nc4cccnc43)cc2)CC1` [Example 28, N-(1-(4-(2-(2-Aminopyridin-3-yl)-3H-imidazo[4,5-b]pyridin-3-yl)benzyl)piperidin-4-yl)-3-cyanopicolinamide] stands 5.00 to 6.22; under `N#Cc1nnccc1C(=O)N1CCN(Cc2ccc(-n3c(-c4cccnc4N)nc4ccc(-c5ccccc5)nc43)cc2)CC1` [Example 70, 4-(4-(4-(2-(2-Aminopyridin-3-yl)-5-phenyl-3H-imidazo[4,5-b]pyridin-3-yl)benzyl)piperazine-1-carbonyl)pyridazine-3-carbonitrile], 6.22 to 7.22.
Still for that read-out and setting: under `N#Cc1ncnc(N2C[C@H]3C[C@@H]2CN3Cc2ccc(-n3c(-c4cccnc4N)nc4ccc(-c5ccccc5)nc43)cc2)n1` [Example 272, 4-((1R,4R)-5-(4-(2-(2-aminopyridin-3-yl)-5-phenyl-3H-imidazo[4,5-b]pyridin-3-yl)benzyl)-2,5-diazabicyclo[2.2.1]heptan-2-yl)-1,3,5-triazine-2-carbonitrile] stands over 7.82.
On the same count and under the same terms, under `N#Cc1ncnc(N2CC3CCC(C2)N3Cc2ccc(-n3c(-c4cccnc4N)nc4ccc(-c5ccccc5)nc43)cc2)n1` [Example 271, 4-(8-(4-(2-(2-Aminopyridin-3-yl)-5-phenyl-3H-imidazo[4,5-b]pyridin-3-yl)benzyl)-3,8-diazabicyclo[3.2.1]octan-3-yl)-1,3,5-triazine-2-carbonitrile] stands 7.22 to 7.82; under `N#Cc1nccnc1C(=O)N1CCN(Cc2ccc(-n3c(-c4cccnc4N)nc4ccc(-c5ccccc5)nc43)cc2)CC1` [Example 163, 3-(4-(4-(2-(2-aminopyridin-3-yl)-5-phenyl-3H-imidazo[4,5-b]pyridin-3-yl)benzyl)piperazine-1-carbonyl)pyrazine-2-carbonitrile], 6.22 to 7.22; under `[2H]C([2H])(c1ccc(-n2c(-c3cccnc3N)nc3ccc(-c4ccccc4)nc32)cc1)N1CCC(Nc2ccnc(C#N)n2)CC1` [Example 222, 4-((1-((4-(2-(2-Aminopyridin-3-yl)-5-phenyl-3H-imidazo[4,5-h]pyridin-3-yl)phenyl)methyl-d2)piperidin-4-yl)amino)pyrimidine-2-carbonitrile], over 7.82.
In the case of `CN(C)C(=O)c1ccc2nc(-c3cccnc3N)n(-c3ccc(CN4CCC(Nc5ccnc(C#N)n5)CC4)cc3)c2n1` [Example 289, 2-(2-aminopyridin-3-yl)-3-(4-((4-((2-cyanopyrimidin-4-yl)amino)piperidin-1-yl)methyl)phenyl)-N,N-dimethyl-3H-imidazo[4,5-b]pyridine-5-carboxamide], the pIC50 was 6.22 to 7.22.
Same read-out and setting: under `N#Cc1nccc(N2CCN(Cc3ccc(-n4c(-c5cccnc5N)nc5ccc(N6CCCNC(=O)C6)nc54)cc3)CC2)n1` [Example 317, 4-(4-(4-(2-(2-Aminopyridin-3-yl)-5-(3-oxo-1,4-diazepan-1-yl)-3H-imidazo[4,5-b]pyridin-3-yl)benzyl)piperazin-1-yl)pyrimidine-2-carbonitrile] stands 6.22 to 7.22.
The same measure, in the same setting: under `N#Cc1ncnc(N2CC3(CCN(Cc4ccc(-n5c(-c6cccnc6N)nc6ccc(-c7ccccc7)nc65)cc4)C3)C2)n1` [Example 301, 4-(6-(4-(2-(2-Aminopyridin-3-yl)-5-phenyl-3H-imidazo[4,5-b]pyridin-3-yl)benzyl)-2,6-diazaspiro[3.4]octan-2-yl)-1,3,5-triazine-2-carbonitrile] stands over 7.82; under `N#Cc1nccc(N2CCN(Cc3ccc(-n4c(-c5cccnc5N)nc5ccc(C6CC6)nc54)cc3)CC2)n1` [Example 258, 4-(4-(4-(2-(2-Aminopyridin-3-yl)-5-cyclopropyl-3H-imidazo[4,5-b]pyridin-3-yl)benzyl)piperazin-1-yl)pyrimidine-2-carbonitrile], over 7.82.

For the origin of these results see patent US12209087B2, “AKT1 modulators” (Alterome Therapeutics, Inc., priority 2022, dated 2025).
